# Test results taken from patent US11286268B1, “EIF4E-inhibiting compounds and methods” (EFFECTOR THERAPEUTICS, INC., priority 2019, dated 2022).
# Test system: MDA-MB-361 cells
# Assay: Cell proliferation assay (CELLTITER-GLO)
# Assay type: cell-based
# Settings: Homo sapiens, 144 h, 6 days of treatment, 4 parameter non-linear regression
# Method: MDA-MB-361 cells were maintained in DMEM supplemented with 10% FBS and 1× penicillin/streptomycin solution at […] in a CO2 incubator. For cell proliferation assays, exponentially growing cells were seeded at 2,000 cells per well in 96-well flat bottom white polystyrene plates (ThermoFisher) and cultured overnight. The following day, compound was added in a 9 point 3-fold dilution series starting from a top concentration of 1 or 10 μM (as indicated) together with a DMSO control. The final DMSO concentration in samples was 0.1%.
# Cells were incubated for up to 6 […] at 37° C. in a CO2 incubator. Baseline viability of untreated cells was measured on the day of treatment and proliferation was measured after 6 […] of treatment using CELLTITER-GLO® reagent from Promega (Madison, Wis.) according to the manufacturer's instructions. Response to compound was calculated relative to the DMSO control (% of control) using the formula, % of control (DMSO)=[(CTGcells+inhibitor)/(CTGDMSO control)]×100. Data were plotted using Prism (GraphPad software), and IC50 and Emax values were calculated from a 4 parameter, variable slope non-linear regression model. Results are shown below and in FIGS. 1-3.
row,SMILES,Emax [%]
1,"Cc1nc2cnc(N(C)C3CCN(C4CC(F)(F)C4)CC3)c(C#N)c2c(=O)n1CC#Cc1ccc(Cl)cc1-c1ccnc2c(C(=O)NS(C)(=O)=O)csc12 [compound 1188, 7-(5-chloro-2-(3-(5-cyano-6-((1-(3,3-difluorocyclobutyl)piperidin-4-yl)(methyl)amino)-2-methyl-4-oxopyrido[3,4-d]pyrimidin-3(4H)-yl)prop-1-yn-1-yl)phenyl)-N-(methylsulfonyl)thieno[3,2-b]pyridine-3-carboxamide]",90.2

# Same assay, conditions: Homo sapiens, 144 h, 6 days of treatment, CELLTITER-GLO, % of DMSO control
row,IC50 [nM],SMILES
1,3.8,"Cc1cc(-c2cc(Cl)ccc2OCCn2c(C)nc3cc(C(F)(F)F)c(N4CCN(C)CC4)c(C#N)c3c2=O)c2scc(C(=O)O)c2n1 [compound 634, 7-(5-chloro-2-(2-(5-cyano-2-methyl-6-(4-methylpiperazin-1-yl)-4-oxo-7-(trifluoromethyl)quinazolin-3(4H)-yl)ethoxy)phenyl)-5-methylthieno[3,2-b]pyridine-3-carboxylic acid]"
2,361,"Cc1nc2cnc(N(C)C3CCN(CC(C)(F)F)CC3)c(C#N)c2c(=O)n1CC#Cc1ccc(Cl)cc1-c1ccnc2c(C(=O)O)csc12 [compound 1141, 7-(5-chloro-2-(3-(5-cyano-6-((1-(2,2-difluoropropyl)piperidin-4-yl)(methyl)amino)-2-methyl-4-oxopyrido[3,4-d]pyrimidin-3(4H)-yl)prop-1-yn-1-yl)phenyl)thieno[3,2-b]pyridine-3-carboxylic acid]"
3,46.8,"Cc1nc2cnc(N(C)C3CCN(C4CC(F)(F)C4)CC3)c(C#N)c2c(=O)n1CC#Cc1ccc(Cl)cc1-c1ccnc2c(C(=O)NS(C)(=O)=O)csc12 [compound 1188, 7-(5-chloro-2-(3-(5-cyano-6-((1-(3,3-difluorocyclobutyl)piperidin-4-yl)(methyl)amino)-2-methyl-4-oxopyrido[3,4-d]pyrimidin-3(4H)-yl)prop-1-yn-1-yl)phenyl)-N-(methylsulfonyl)thieno[3,2-b]pyridine-3-carboxamide]"

# Target: recombinant eIF4E (Homo sapiens (Human), UniProt P06730)
# Sequence (P06730 whole entry): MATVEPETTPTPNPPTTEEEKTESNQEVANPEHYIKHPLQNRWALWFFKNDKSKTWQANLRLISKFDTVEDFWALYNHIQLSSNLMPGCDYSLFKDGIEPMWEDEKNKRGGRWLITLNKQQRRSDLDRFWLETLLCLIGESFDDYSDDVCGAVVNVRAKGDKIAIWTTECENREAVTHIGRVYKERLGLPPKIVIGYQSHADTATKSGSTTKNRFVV
# Assay: Fluorescence polarization competition assay for eIF4E binding potency
# Settings: fluorescence polarization competition, 75 nM recombinant eIF4E, 20 nM EDA-m7GDP-ATTO-550; IC50 class; read-out: elF4E FP
# Outline: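 Competitive displacement format: compounds compete with a fluorescent m7GDP tracer (20 nM) for 75 nM recombinant eIF4E. Incubation is 30 min at room temperature, protected from light, with 1% DMSO. Polarization read gives IC50 over eight 3-fold concentrations.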
row,IC50 [nM],SMILES
1,< 50,"Cc1cc(-c2cc(Cl)ccc2OCCn2c(C)nc3cc(C(F)(F)F)c(N4CCN(C)CC4)c(C#N)c3c2=O)c2scc(C(=O)O)c2n1 [compound 634, 7-(5-chloro-2-(2-(5-cyano-2-methyl-6-(4-methylpiperazin-1-yl)-4-oxo-7-(trifluoromethyl)quinazolin-3(4H)-yl)ethoxy)phenyl)-5-methylthieno[3,2-b]pyridine-3-carboxylic acid]"
2,< 50,"Cc1nc2cnc(N(C)C3CCN(CC(C)(F)F)CC3)c(C#N)c2c(=O)n1CC#Cc1ccc(Cl)cc1-c1ccnc2c(C(=O)O)csc12 [compound 1141, 7-(5-chloro-2-(3-(5-cyano-6-((1-(2,2-difluoropropyl)piperidin-4-yl)(methyl)amino)-2-methyl-4-oxopyrido[3,4-d]pyrimidin-3(4H)-yl)prop-1-yn-1-yl)phenyl)thieno[3,2-b]pyridine-3-carboxylic acid]"
3,< 50,"Cc1nc2cnc(N(C)C3CCN(C4CC(F)(F)C4)CC3)c(C#N)c2c(=O)n1CC#Cc1ccc(Cl)cc1-c1ccnc2c(C(=O)NS(C)(=O)=O)csc12 [compound 1188, 7-(5-chloro-2-(3-(5-cyano-6-((1-(3,3-difluorocyclobutyl)piperidin-4-yl)(methyl)amino)-2-methyl-4-oxopyrido[3,4-d]pyrimidin-3(4H)-yl)prop-1-yn-1-yl)phenyl)-N-(methylsulfonyl)thieno[3,2-b]pyridine-3-carboxamide]"

# Same assay, conditions: inhibition of eIF4E/EDA-m7GDP-ATTO-550 binding by 50%; Table 4B calculated values; read-out: IC50
row,IC50 [nM],SMILES
1,5.62,"Cc1cc(-c2cc(Cl)ccc2OCCn2c(C)nc3cc(C(F)(F)F)c(N4CCN(C)CC4)c(C#N)c3c2=O)c2scc(C(=O)O)c2n1 [compound 634, 7-(5-chloro-2-(2-(5-cyano-2-methyl-6-(4-methylpiperazin-1-yl)-4-oxo-7-(trifluoromethyl)quinazolin-3(4H)-yl)ethoxy)phenyl)-5-methylthieno[3,2-b]pyridine-3-carboxylic acid]"
2,18.9,"Cc1nc2cnc(N(C)C3CCN(CC(C)(F)F)CC3)c(C#N)c2c(=O)n1CC#Cc1ccc(Cl)cc1-c1ccnc2c(C(=O)O)csc12 [compound 1141, 7-(5-chloro-2-(3-(5-cyano-6-((1-(2,2-difluoropropyl)piperidin-4-yl)(methyl)amino)-2-methyl-4-oxopyrido[3,4-d]pyrimidin-3(4H)-yl)prop-1-yn-1-yl)phenyl)thieno[3,2-b]pyridine-3-carboxylic acid]"
3,12.4,"Cc1nc2cnc(N(C)C3CCN(C4CC(F)(F)C4)CC3)c(C#N)c2c(=O)n1CC#Cc1ccc(Cl)cc1-c1ccnc2c(C(=O)NS(C)(=O)=O)csc12 [compound 1188, 7-(5-chloro-2-(3-(5-cyano-6-((1-(3,3-difluorocyclobutyl)piperidin-4-yl)(methyl)amino)-2-methyl-4-oxopyrido[3,4-d]pyrimidin-3(4H)-yl)prop-1-yn-1-yl)phenyl)-N-(methylsulfonyl)thieno[3,2-b]pyridine-3-carboxamide]"

# Same assay, conditions: inhibition of eIF4E/EDA-m7GDP-ATTO-550 binding; calculated IC50 values, Table 4B; read-out: IC50
row,SMILES,IC50 [nM]
1,Cc1cc2cc(C(F)(F)F)cc(C#N)c2c(O)c1CCOc1ccc(Cl)cc1-c1ccnc2c(C(=O)O)csc12 [compound 1976],1850
2,COc1c(CCOc2ccc(Cl)cc2-c2ccnc3c(C(=O)O)csc23)c(C)cc2cc(C(F)(F)F)cc(C#N)c12 [compound 1977],> 1000
3,Cc1cc(-c2cc(Cl)ccc2OCCn2c(C)nc3cc(C(F)(F)F)c(Cl)nc3c2=O)c2scc(C(=O)O)c2n1 [compound 1978],25.3
4,Cc1nc2c(C(F)(F)F)cc(N3CCN(C)CC3)nc2c(=O)n1CC#Cc1ccc(Cl)cc1-c1ccnc2c(C(=O)O)csc12 [compound 1981],23.8
5,Cc1nc2cncc(C#N)c2c(=O)n1CCOc1ccc(Cl)cc1-c1cccc(C(=O)O)c1 [compound 1982],36.4
6,N#Cc1cncc2nc(C(F)F)n(CCOc3ccc(Cl)cc3-c3cccc(C(=O)O)c3)c(=O)c12 [compound 1983],82.6
7,N#Cc1cccc2nc(C(F)F)n(CCOc3ccc(Cl)cc3-c3cccc(C(=O)O)c3)c(=O)c12 [compound 1986],78.5
8,CCC#Cc1c(C(=O)O)cccc1-c1cc(Cl)ccc1OCCn1c(C(F)F)nc2cccc(C#N)c2c1=O [compound 1987],1290
9,N#Cc1cc(Br)cc2ncn(CCOc3ccc(Cl)cc3-c3cccc(C(=O)O)c3)c(=O)c12 [compound 1988],49.5
10,N#Cc1cc(C#N)c2c(=O)n(CCOc3ccc(Cl)cc3-c3cccc(C(=O)O)c3)cnc2c1 [compound 1989],89
11,N#Cc1ccc(C#N)c2c(=O)n(CCOc3ccc(Cl)cc3-c3cccc(C(=O)O)c3)cnc12 [compound 1990],58.1
12,O=C(O)c1cccc(-c2cc(Cl)ccc2OCCn2nnc3ccccc3c2=O)c1 [compound 1991],> 300000
13,O=C(O)c1cccc(-c2cc(Cl)ccc2OCCn2cnc3cnccc3c2=O)c1 [compound 1992],490
14,O=C(O)c1cccc(-c2cc(Cl)ccc2OCCn2cnc3c(C(F)(F)F)nccc3c2=O)c1 [compound 1993],412
15,N#Cc1cc(C(F)(F)F)cc2ncn(CCOc3ccc(Cl)cc3-c3cccc(C(=O)O)c3)c(=O)c12 [compound 1994],41.8
16,Cc1nc2cnc(C#N)cc2c(=O)n1CCOc1ccc(Cl)cc1-c1cccc(C(=O)O)c1 [compound 1995],59.3
17,N#Cc1cc2c(=O)n(CCOc3ccc(Cl)cc3-c3cccc(C(=O)O)c3)c(C(F)F)nc2cn1 [compound 1996],189
18,Cc1nc2c(C#N)nc(C#N)cc2c(=O)n1CCOc1ccc(Cl)cc1-c1cccc(C(=O)O)c1 [compound 1997],77.5
19,Cc1nc2cnc(CN)cc2c(=O)n1CCOc1ccc(Cl)cc1-c1cccc(C(=O)O)c1 [compound 1998],409
20,Cc1nc2cncc(Br)c2c(=O)n1CCOc1ccc(Cl)cc1-c1cccc(C(=O)O)c1 [compound 1999],482
21,O=C(O)c1cccc(-c2cc(Cl)ccc2OCCn2c(Nc3ccccc3)nc3c(O)nccc3c2=O)c1 [compound 2000],18200
22,O=C(O)c1cccc(-c2cc(Cl)ccc2OCCn2c(Nc3ccccc3)nc3c(Cl)nccc3c2=O)c1 [compound 2001],65800
23,Cc1nc2cnc(Nc3cc(F)cc(F)c3)cc2c(=O)n1CCOc1ccc(Cl)cc1-c1cccc(C(=O)O)c1 [compound 2002],259

# Next, values leading:
row,IC50 [nM],SMILES
1,264,Cc1nc2cnc(NC3CCCCC3)cc2c(=O)n1CCOc1ccc(Cl)cc1-c1cccc(C(=O)O)c1 [compound 2003]
2,639,Cc1nc2cnc(Nc3ccccc3)cc2c(=O)n1CCOc1ccc(Cl)cc1-c1cccc(C(=O)O)c1 [compound 2004]
3,364,Cc1nc2cnc(NC3CCCC3)cc2c(=O)n1CCOc1ccc(Cl)cc1-c1cccc(C(=O)O)c1 [compound 2005]
4,611,CNc1cc2c(=O)n(CCOc3ccc(Cl)cc3-c3cccc(C(=O)O)c3)c(C)nc2cn1 [compound 2006]
5,> 300000,O=C(O)c1cccc(-c2cc(Cl)ccc2OCCn2c(C(F)(F)F)nc3cnc(Cl)cc3c2=O)c1 [compound 2007]
6,96.1,O=C(O)c1cccc(-c2cc(Cl)ccc2OCCn2c(C(F)F)nc3cnc(Cl)cc3c2=O)c1 [compound 2008]
7,2150,O=C(O)c1cccc(-c2cc(Cl)ccc2OCCn2c(C(F)F)nc3cccc(Br)c3c2=O)c1 [compound 2009]
8,1190,O=C(O)c1cccc(-c2cc(Cl)ccc2OCCn2c(C(F)F)nc3cncc(Br)c3c2=O)c1 [compound 2010]
9,529,Cc1nc2ccc3c(c2c(=O)n1CCOc1ccc(Cl)cc1-c1cccc(C(=O)O)c1)C(=O)N(C)C3 [compound 2011]
10,> 10000,O=C(O)c1cc2ccc1CCCCCc1nc3cc(C(F)(F)F)cc(Br)c3c(=O)n1CCOc1ccc(Cl)cc1-2 [compound 2013]
11,12200,O=C(O)c1cc(-c2cc(Cl)ccc2OCCn2nnc3ccccc3c2=O)ccn1 [compound 2014]
12,51.1,Cc1nc2cc(C(F)(F)F)c(N3CC4(C3)CN(C3CC3)C4)c(C#N)c2c(=O)n1CCOc1ccc(Cl)cc1-c1ccnc2ccsc12 [compound 2015]
13,613,Cc1nc2cc(C(F)(F)F)c(CN(C)C)c(C#N)c2c(=O)n1CCOc1ccc(Cl)cc1-c1ccnc2ccsc12 [compound 2016]
14,50.6,N#Cc1cccc2nc(C(F)F)n(CCOc3ccc(Cl)cc3-c3cccc4c(C(=O)O)csc34)c(=O)c12 [compound 2017]
15,24.4,Cc1nc2cc(C(F)(F)F)cc(C#N)c2c(=O)n1CCOc1ccc(Cl)cc1-c1ccc(F)c2c(C(=O)O)csc12 [compound 2018]
16,33,Cc1nc2cnc(N3CCN(C)C4CC43)c(C#N)c2c(=O)n1CCOc1ccc(Cl)cc1-c1cccc2c(C(=O)O)csc12 (stereo not drawn) [compound 2020]
17,> 1000,Cc1cc(-c2cc(CN3CCN(C)CC3)ccc2OCCn2c(C)nc3cc(F)c(CN4CCN(C)CC4)c(C#N)c3c2=O)c2scc(C(=O)O)c2n1 [compound 2027]
18,6.2,C#Cc1c(-c2cc(Cl)ccc2OCCn2c(C(F)F)nc3cccc(C#N)c3c2=O)csc1C(=O)O [compound 2034]
19,72.3,N#Cc1cccc2nc(C(F)F)n(CCOc3ccc(Cl)cc3-c3ccnc4c(C(=O)O)scc34)c(=O)c12 [compound 2035]
20,38.4,Cc1cc(-c2cc(N3CC(F)(F)C3)ccc2OCCn2c(C)nc3cc(C(F)(F)F)c(N4CC(F)(F)C4)c(C#N)c3c2=O)c2scc(C(=O)O)c2n1 [compound 2036]
21,> 1000,COC(=O)c1sc2c(-c3cc(Cl)ccc3OCCn3c(C)nc4cc(C(F)(F)F)cc(C#N)c4c3=O)ccnc2c1O [compound 2037]
